Measurements taken from patent publication US5075299A, “Cephalosporin compounds and antibacterial agents” (Meiji Seika Kaisha, Ltd., priority 1988, dated 1991).
Converted amounts (≈) assume the structure as drawn. Where two headings read alike, the source gives them in different places.

How the values were obtained:
[1] = test system: Staphylococcus aureus 606 E-25; assay: antibacterial activity, agar dilution method; type: cell-based
[2] = test system: Citrobacter froindii GN346; assay: antibacterial activity, agar dilution method; type: cell-based
[3] = test system: Serratia marcescens GN629; assay: antibacterial activity, agar dilution method; type: cell-based
[4] = test system: Pseudomonas aeruginosa MB3833; assay: antibacterial activity, agar dilution method; type: cell-based
[5] = test system: Proteus rettgeli GN624; assay: antibacterial activity, agar dilution method; type: cell-based; details: read-out: Antibacterial Activity MIC
[6] = test system: mice; assay: acute toxicity using mice; type: in vivo; details: dose of 2 g/kg by intravenous injection
Text: Acute toxicity of the compound of Example 2 was examined using mice.

[7] = test system: Klebsiella pneumoniae GN118; assay: antibacterial activity, agar dilution method; type: cell-based
[8] = test system: Escherichia coli W3630 RGN238; assay: antibacterial activity, agar dilution method; type: cell-based; details: W3630RGN238, read-out: Antibacterial Activity MIC
[9] = test system: Escherichia coli GN206; assay: antibacterial activity, agar dilution method; type: cell-based
[10] = test system: Pseudomonas aeruginosa IAM-1007; assay: antibacterial activity, agar dilution method; type: cell-based
[11] = 606E25, Staphylococcus aureus 606 E-25, agar dilution method, read-out: Antibacterial Activity MIC
[12] = Citrobacter froindii GN346, agar dilution method, read-out: Antibacterial Activity MIC
[13] = Serratia marcescens GN629, agar dilution method, read-out: Antibacterial Activity MIC
[14] = Pseudomonas aeruginosa MB3833, agar dilution method, read-out: Antibacterial Activity MIC
[15] = Proteus rettgeli GN624, agar dilution method
[16] = Klebsiella pneumoniae GN118, agar dilution method, read-out: Antibacterial Activity MIC
[17] = Escherichia coli GN206, agar dilution method, read-out: Antibacterial Activity MIC
[18] = IAM1007, Pseudomonas aeruginosa IAM-1007, agar dilution method, read-out: Antibacterial Activity MIC
[19] = Klebsiella pneumoniae, GN118, read-out: Antibacterial Activity MIC

`Cc1c(O)c(=O)cc(CO/N=C(\C(=O)NC2C(=O)N3C(C(=O)O)=C(CSc4cnns4)CSC23)c2csc(N)n2)n1O` (stereo not shown) [Example 2, 7-((Z)-2-(2-Aminothiazol-4-yl)-2-(6-methyl-1,5-dihydroxy-4-pyridon-2-ylmethoxyimino)acetamido)-3-(1,2,3-thiadiazol-5-yl-thiomethyl)-3-cephem-4-carboxylic acid] was tested. Which MIC [1, 11] did it give?
Its MIC is 12.5 µg/mL (≈ 19.2 µM).

And the MIC [2, 12]?
Its MIC is 6.25 µg/mL (≈ 9.58 µM).

And the MIC [3, 13]?
The MIC was 0.05 µg/mL (≈ 0.0766 µM).

What about the MIC [4, 14] of the same compound?
The MIC was under 0.025 µg/mL.

And the MIC [5, 15]?
Its MIC is 0.1 µg/mL (≈ 0.153 µM).

And the “Acute toxicity (death)” value [6]?
Its value is “no death was noted”.

And the MIC [7, 16]?
The MIC was under 0.025 µg/mL.

And the MIC [8]?
The MIC was under 0.025 µg/mL.

And the MIC [9, 17]?
The MIC was 0.39 µg/mL (≈ 0.598 µM).

And the MIC [10, 18]?
The MIC was under 0.025 µg/mL.

Which results are given for `CO/N=C(\C(=O)N[C@@H]1C(=O)N2C(C(=O)O)=C(COC(C)=O)CS[C@H]12)c1csc(N)n1` [CTX, reference compound]?
MIC [1, 11]: 1.56 µg/mL (≈ 3.43 µM); MIC [2, 12]: 12.5 µg/mL (≈ 27.4 µM); MIC [3, 13]: 0.39 µg/mL (≈ 0.856 µM); MIC [4, 14]: 12.5 µg/mL (≈ 27.4 µM); MIC [5, 15]: 1.56 µg/mL (≈ 3.43 µM); MIC [7, 16]: 0.05 µg/mL (≈ 0.11 µM); MIC [8]: 0.2 µg/mL (≈ 0.439 µM); MIC [9, 17]: 1.56 µg/mL (≈ 3.43 µM); MIC [10, 18]: 12.5 µg/mL (≈ 27.4 µM)

Which results are given for `Cc1c(O)c(=O)cc(CO/N=C(\C(=O)NC2C(=O)N3C(C(=O)O)=C(CSc4nnnn4C)CSC23)c2csc(N)n2)n1O` (stereo not shown) [Example 4, 7-((Z)-2-(2-Aminothiazol-4-yl)-2-(6-methyl-1,5-dihydroxy-4-pyridon-2-ylmethoxyimino)acetamido)-3-(1-methyl-1H-tetrazol-5-ylthiomethyl)-3-cephem-4-carboxylic acid]?
MIC [1, 11]: 25 µg/mL (≈ 38.4 µM); MIC [2, 12]: 6.25 µg/mL (≈ 9.61 µM); MIC [3, 13]: 0.05 µg/mL (≈ 0.0768 µM); MIC [4, 14]: < 0.025 µg/mL; MIC [5, 15]: 0.05 µg/mL (≈ 0.0768 µM); MIC [7, 16]: < 0.025 µg/mL; MIC [8]: < 0.025 µg/mL; MIC [9, 17]: 0.1 µg/mL (≈ 0.154 µM); MIC [10, 18]: < 0.025 µg/mL

`Cc1cc(=O)c(O)c(CO/N=C(\C(=O)NC2C(=O)N3C(C(=O)O)=C(CSc4cnns4)CSC23)c2csc(N)n2)n1O` (stereo not shown) [Example 6] was tested. Which MIC [1, 11] did it give?
The MIC was 1.56 µg/mL (≈ 2.39 µM).

What about the MIC [2, 12] of the same compound?
Its MIC is 6.25 µg/mL (≈ 9.58 µM).

What about the MIC [3, 13] of the same compound?
Its MIC is 0.2 µg/mL (≈ 0.306 µM).

What about the MIC [4, 14] of the same compound?
The MIC was 0.39 µg/mL (≈ 0.598 µM).

What about the MIC [5, 15] of the same compound?
Its MIC is 0.1 µg/mL (≈ 0.153 µM).

And the MIC [7, 19]?
The MIC was under 0.025 µg/mL.

And the MIC [8]?
The MIC was 0.05 µg/mL (≈ 0.0766 µM).

And the MIC [9, 17]?
The MIC was 0.78 µg/mL (≈ 1.2 µM).

What about the MIC [10, 18] of the same compound?
Its MIC is 0.39 µg/mL (≈ 0.598 µM).

Which MIC ([1]; Staphylococcus aureus, 606E25, read-out: Antibacterial Activity MIC) does the source give for `CC(C)(O/N=C(\C(=O)N[C@@H]1C(=O)N2C(C(=O)[O-])=C(C[n+]3ccccc3)CS[C@H]12)c1csc(N)n1)C(=O)O` [CAZ, reference compound] here?
Its MIC is 12.5 µg/mL (≈ 22.9 µM).

What about the MIC ([2]; Citrobacter, GN346, read-out: Antibacterial Activity MIC) of the same compound?
The MIC was 50 µg/mL (≈ 91.5 µM).

What about the MIC ([3]; Serratia marcescens, GN629, read-out: Antibacterial Activity MIC) of the same compound?
The MIC was 0.39 µg/mL (≈ 0.714 µM).

And the MIC ([4]; Pseudomonas aeruginosa, MB3833, read-out: Antibacterial Activity MIC)?
The MIC was 0.78 µg/mL (≈ 1.43 µM).

And the MIC [5]?
Its MIC is 1.56 µg/mL (≈ 2.85 µM).

What about the MIC [7, 19] of the same compound?
The MIC was 0.78 µg/mL (≈ 1.43 µM).

What about the MIC [8] of the same compound?
Its MIC is 0.39 µg/mL (≈ 0.714 µM).

What about the MIC ([9]; Escherichia coli, GN206, read-out: Antibacterial Activity MIC) of the same compound?
Its MIC is 1.56 µg/mL (≈ 2.85 µM).

And the MIC ([10]; Pseudomonas aeruginosa, IAM1007, read-out: Antibacterial Activity MIC)?
The MIC was 1.56 µg/mL (≈ 2.85 µM).
